Experimental data from US20070287699A1, “ANTIVIRAL AGENTS” (ViroBay, Inc., priority 2006, published 2007).

Test system: HCV replicon RNA replication in human Huh7 hepatoma cells
Assay: HCV replicon assay (activity levels from either or both of HCV replicon assay 1, Huh7/Clone A RT-qPCR, and assay 2, Huh7 ET luc-ubi-neo/ET)
Assay type: cell-based, Hepatitis C virus (HCV)
Details: Hepatitis C virus, Huh-7, either or both HCV replicon assays: Huh7/Clone A, 48 hours, 72 hours, Luc activity or RT-PCR, read-out: inhibit HCV replication at IC50 levels or estimated IC50 levels
Outline: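 Huh7/Clone A subgenomic replicon cells treated 48 h at 37° C. with 7 serial dilutions in triplicate (0.5% DMSO final). Replicon RNA measured by TaqMan RT-qPCR on the neo gene, normalized to RiboGreen total RNA; untreated cells set as 100% for IC50.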

| SMILES | IC50 [nM] |
| --- | --- |
| CN(CC(N)=O)c1cc2c(cc1F)c(=O)c(-c1noc(Cc3ccccc3)n1)cn2Cc1ccc(C(F)(F)F)cc1 [Compound 97, 2-{[3-(5-benzyl-[1,2,4]oxadiazol-3-yl)-6-fluoro-4-oxo-1-(4-trifluoromethyl-benzyl)-1,4-dihydro-quinolin-7-yl]-methyl-amino}-acetamide] | > 10000 |
| CN1CCN(c2cc3c(cc2F)c(=O)c(-c2noc(C(C)(C)c4ccccc4)n2)cn3Cc2cccc(C(F)(F)F)c2)CC1 [Compound 98, 6-fluoro-3-[5-(1-methyl-1-phenyl-ethyl)-[1,2,4]oxadiazol-3-yl]-7-(4-methyl-piperazin-1-yl)-1-(3-trifluoromethyl-benzyl)-1H-quinolin-4-one] | < 500 |
| NC(=O)CCCC(c1ccccc1)c1nc(-c2cn(Cc3ccc(C(F)(F)F)cc3F)c3ccccc3c2=O)no1 (stereo not shown) [Compound 99, 5-{3-[1-(2-fluoro-4-trifluoromethyl-benzyl)-4-oxo-1,4-dihydro-quinolin-3-yl]-[1,2,4]oxadiazol-5-yl}-5-phenyl-pentanoic acid amide] | > 10000 |
| CC(C)(c1ccccc1)c1nc(-c2cn(Cc3ccc(C(F)(F)F)cc3)c3cc(N4CCS(=O)(=O)CC4)c(F)cc3c2=O)no1 [Compound 100, 7-(1,1-dioxo-thiomorpholin-4-yl)-6-fluoro-3-[5-(1-methyl-1-phenyl-ethyl)-[1,2,4]oxadiazol-3-yl]-1-(4-trifluoromethyl-benzyl)-1H-quinolin-4-one] | < 500 |
| CC(C)(c1ccccc1)c1nc(-c2cn(Cc3ccc(C(F)(F)F)cc3)c3cc(N4CCSCC4)c(F)cc3c2=O)no1 [Compound 101, 6-fluoro-3-[5-(1-methyl-1-phenyl-ethyl)-[1,2,4]oxadiazol-3-yl]-7-thiomorpholin-4-yl-1-(4-trifluoromethyl-benzyl)-1H-quinolin-4-one] | < 500 |
| CC(C)(C)c1ccc(Cn2cc(-c3noc(Cc4ccccc4)n3)c(=O)c3cc(F)c(N4CCCNCC4)cc32)cc1 [Compound 102, 3-(5-benzyl-[1,2,4]oxadiazol-3-yl)-1-(4-tert-butyl-benzyl)-7-[1,4]diazepan-1-yl-6-fluoro-1H-quinolin-4-one] | < 2000 |
| CN1CCCN(c2nc3c(cc2F)c(=O)c(-c2noc(C(C)(C)c4ccccc4)n2)cn3Cc2ccc(C(F)(F)F)cc2)CC1 [Compound 103, 6-fluoro-7-(4-methyl-[1,4]diazepan-1-yl)-3-[5-(1-methyl-1-phenyl-ethyl)-[1,2,4]oxadiazol-3-yl]-1-(4-trifluoromethyl-benzyl)-1H-[1,8]naphthyridin-4-one] | < 2000 |
| O=C(O)c1cn(-c2cc3c(cc2F)c(=O)c(-c2noc(Cc4ccccc4)n2)cn3Cc2ccc(C(F)(F)F)cc2F)cn1 [Compound 104, 1-(3-(5-benzyl-1,2,4-oxadiazol-3-yl)-6-fluoro-1-(2-fluoro-4-(trifluoromethyl)benzyl)-4-oxo-1,4-dihydroquinolin-7-yl)-1H-imidazole-4-carboxylic acid] | > 10000 |
| NC(=O)Cc1ccc2c(c1)c(=O)c(-c1noc(Cc3ccccc3)n1)cn2Cc1ccc(C(F)(F)F)cc1F [Compound 105, 2-(3-(5-benzyl-1,2,4-oxadiazol-3-yl)-1-(2-fluoro-4-(trifluoromethyl)benzyl)-4-oxo-1,4-dihydroquinolin-6-yl)acetamide] | > 10000 |
| CC(c1ccc(C(F)(F)F)cc1)n1cc(-c2noc(C(C)(C)c3ccc(F)cc3)n2)c(=O)c2cc(F)c(N3CCOCC3)cc21 (stereo not shown) [Compound 109, 6-fluoro-3-(5-(2-(4-fluorophenyl)propan-2-yl)-1,2,4-oxadiazol-3-yl)-7-morpholino-1-(1-(4-(trifluoromethyl)phenyl)ethyl)quinolin-4(1H)-one] | < 2000 |
| CC(C)(c1ccc(F)cc1)c1nc(-c2cn(Cc3ccc(C(F)(F)F)cc3)c3cc(N4CCNC(=O)C4)c(F)cc3c2=O)no1 [Compound 125, 6-fluoro-3-(5-(2-(4-fluorophenyl)propan-2-yl)-1,2,4-oxadiazol-3-yl)-7-(3-oxopiperazin-1-yl)-1-(4-(trifluoromethyl)benzyl)quinolin-4(1H)-one] | < 500 |
| CC(C)(c1ccccc1)c1nc(-c2cn(Cc3ccc(C(F)(F)F)cc3)c3cc(N4CCNC(=O)C4)c(F)cc3c2=O)no1 [Compound 126, 6-fluoro-7-(3-oxopiperazin-1-yl)-3-(5-(2-phenylpropan-2-yl)-1,2,4-oxadiazol-3-yl)-1-(4-(trifluoromethyl)benzyl)quinolin-4(1H)-one] | < 500 |
| CC(C)(c1ccc(Cl)cc1)c1nc(-c2cn(Cc3ccc(C(F)(F)F)cc3)c3cc(N4CCS(=O)(=O)CC4)c(F)cc3c2=O)no1 [Compound 127, 3-(5-(2-(4-chlorophenyl)propan-2-yl)-1,2,4-oxadiazol-3-yl)-6-fluoro-7-dioxo-thiomorpholino-1-(4-(trifluoromethyl)benzyl)quinolin-4(1H)-one] | < 10000 |
| CC(C)(c1ccccc1)c1nc(-c2cn(Cc3ccc(C(F)(F)F)cc3)c3cc(N4CC[S+]([O-])CC4)c(F)cc3c2=O)no1 [Compound 129] | < 500 |
| COc1ccc(Cn2cc(-c3noc(C(C)(C)c4ccc(F)cc4)n3)c(=O)c3cc(F)c(N4CCOCC4)cc32)cc1 [Compound 130, 6-fluoro-3-(5-(2-(4-fluorophenyl)propan-2-yl)-1,2,4-oxadiazol-3-yl)-1-(4-methoxybenzyl)-7-morpholinoquinolin-4(1H)-one] | < 2000 |
| C[C@@H]1CN(c2cc3c(cc2F)c(=O)c(-c2noc(C(C)(C)c4ccccc4)n2)cn3Cc2ccc(C(F)(F)F)cc2)C[C@H](C)N1 [Compound 131, 7-((3S,5R)-3,5-dimethylpiperazin-1-yl)-6-fluoro-3-(5-(2-phenylpropan-2-yl)-1,2,4-oxadiazol-3-yl)-1-(4-(trifluoromethyl)benzyl)quinolin-4(1H)-one] | < 500 |
| CC(C)(c1ccc(F)cc1)c1nc(-c2cn(Cc3ccc(C(F)(F)F)cc3)c3cc(N4CCSCC4)c(F)cc3c2=O)no1 [Compound 132, 6-fluoro-3-(5-(2-(4-fluorophenyl)propan-2-yl)-1,2,4-oxadiazol-3-yl)-7-thiomorpholino-1-(4-(trifluoromethyl)benzyl)quinolin-4(1H)-one] | < 500 |
| C[C@@H]1CN(c2cc3c(cc2F)c(=O)c(-c2noc(C(C)(C)c4ccc(F)cc4)n2)cn3Cc2ccc(C(F)(F)F)cc2)C[C@H](C)N1 [Compound 133, 7-((3S,5R)-3,5-dimethylpiperazin-1-yl)-6-fluoro-3-(5-(2-(4-fluorophenyl)propan-2-yl)-1,2,4-oxadiazol-3-yl)-1-(4-(trifluoromethyl)benzyl)quinolin-4(1H)-one] | < 500 |
| CC1CN(c2cc3c(cc2F)c(=O)c(-c2noc(C(C)(C)c4ccccc4)n2)cn3Cc2ccc(C(F)(F)F)cc2)CC(C)O1 (stereo not shown) [Compound 138, 7-(2,6-dimethylmorpholino)-6-fluoro-3-(5-(2-phenylpropan-2-yl)-1,2,4-oxadiazol-3-yl)-1-(4-(trifluoromethyl)benzyl)quinolin-4(1H)-one] | < 2000 |
| C[C@@H](c1ccccc1)n1cc(-c2noc(C(C)(C)c3ccccc3)n2)c(=O)c2cc(F)c(N3CCOCC3)cc21 [Compound 143, (S)-6-fluoro-7-morpholino-1-(1-phenylethyl)-3-(5-(2-phenylpropan-2-yl)-1,2,4-oxadiazol-3-yl)quinolin-4(1H)-one] | > 10000 |
| CC(C)(c1ccccc1)c1nc(-c2cn(C(C)(C)c3ccccc3)c3cc(N4CCOCC4)c(F)cc3c2=O)no1 [Compound 144, 6-fluoro-7-morpholino-1-(2-phenylpropan-2-yl)-3-(5-(2-phenylpropan-2-yl)-1,2,4-oxadiazol-3-yl)quinolin-4(1H)-one] | > 10000 |
| C[C@H](c1ccccc1)n1cc(-c2noc(C(C)(C)c3ccccc3)n2)c(=O)c2cc(F)c(N3CCOCC3)cc21 [Compound 145, (R)-6-fluoro-7-morpholino-1-(1-phenylethyl)-3-(5-(2-phenylpropan-2-yl)-1,2,4-oxadiazol-3-yl)quinolin-4(1H)-one] | > 10000 |
| CC(C)(c1ccccc1)c1nc(-c2cn(Cc3ccc(C(F)(F)F)cc3)c3cc(N4CCOCC4)c(F)cc3c2=O)no1 [Compound 146, 6-fluoro-7-morpholino-3-(5-(2-phenylpropan-2-yl)-1,2,4-oxadiazol-3-yl)-1-(4-(trifluoromethyl)benzyl)quinolin-4(1H)-one] | < 500 |
| CC(C)(c1ccc(F)cc1)c1nc(-c2cn(Cc3ccc(F)cc3)c3cc(N4CCS(=O)(=O)CC4)c(F)cc3c2=O)no1 [Compound 151, 7-(1,1-dioxo-thiomorpholine)-6-fluoro-3-(5-(2-(4-fluorophenyl)propan-2-yl)-1,2,4-oxadiazol-3-yl)-1-(4-(fluoro)benzyl)quinolin-4(1H)-one] | < 10000 |
| CN(C)c1cc2c(cc1F)c(=O)c(-c1noc(C(C)(C)c3ccccc3)n1)cn2Cc1ccc(C(F)(F)F)cc1 [Compound 152, 7-(dimethylamino)-6-fluoro-3-(5-(2-phenylpropan-2-yl)-1,2,4-oxadiazol-3-yl)-1-(4-(trifluoromethyl)benzyl)quinolin-4(1H)-one] | < 500 |
| CN(C)c1cc2c(cc1F)c(=O)c(-c1noc(C(C)(C)c3ccc(F)cc3)n1)cn2Cc1ccc(C(F)(F)F)cc1 [Compound 153, 7-(dimethylamino)-6-fluoro-3-(5-(2-(4-fluorophenyl)propan-2-yl)-1,2,4-oxadiazol-3-yl)-1-(4-(trifluoromethyl)benzyl)quinolin-4(1H)-one] | < 2000 |
| CN(C)c1cc2c(cc1F)c(=O)c(-c1noc(C(C)(C)c3ccccc3)n1)cn2Cc1ccc(F)cc1 [Compound 154, 7-(dimethylamino)-6-fluoro-1-(4-fluorobenzyl)-3-(5-(2-phenylpropan-2-yl)-1,2,4-oxadiazol-3-yl)quinolin-4(1H)-one] | < 2000 |
| CC(C)(c1ccc(F)cc1)c1nc(-c2cn(Cc3ccc(F)cc3)c3cc(F)c(F)cc3c2=O)no1 [Compound 155, 6,7-difluoro-1-(4-fluorobenzyl)-3-(5-(2-(4-fluorophenyl)propan-2-yl)-1,2,4-oxadiazol-3-yl)quinolin-4(1H)-one] | > 10000 |
